These results are taken from patent publication US20260108561A1, “COMPOSITION FOR CELL TRANSPLANTATION THERAPY AND THE USE THEREOF” (NATIONAL UNIVERSITY OF SINGAPORE, priority 2022, published 2026).

Assay [1] deals with grafted NPCs in the ischemic core. Nature of the assay: Survival and differentiation of NPCs transplanted into the ischemic core of photothrombotic stroke mice (immunohistochemistry, stereology). In kind it is in vivo, SCID mice. The note with it: for Cleaved-caspase3 immunostaining in grafted cells / Grafted (GFP+) cells in the stroke cavity: 7 days post transplantation; for Grafted (GFP+) cells in the stroke cavity: NPCs injected into ischemic core 2 weeks after stroke; for Gross appearance of the cortex: 30 days post transplantation; for Survival of grafted NPCs (overall conclusion): NPCs transplanted into the ischemic core. The procedure: All animal studies were performed in accordance with the institutional animal care and use committee at Duke-NUS Medical School. Ischemic strokes in adult (10-12 weeks) male SCID mice were induced through photo-thrombosis. Briefly, Rose Bengal was administered intravenously at a dose of 0.1 mg/g per mouse. Mouse skull was exposed under 2% isoflurane anaesthesia. The right motor cortex (anterior-posterior [AP]=+2 mm, lateral [L]=+1 mm) received a 2.5-mm diameter illumination of cold light through the intact skull for 15 min. Animals were randomly grouped and transplanted with forebrain glutamatergic precursors.
Animals were sacrificed with a lethal dose of pentobarbital (250 mg/kg) and immediately perfused with PBS followed by 4% cold paraformaldehyde (PFA). The brain samples were fixed in cold PFA for 2 hours and immersed in 30% sucrose at 4° C. for around 4 days until sunk. Serial coronal (1.54 mm to-0.22 mm from Bregma) sections were collected on a freezing microtome at a 40-μm thickness and stored at −20° C. For immunostaining, sections were incubated with blocking solution containing 10% normal donkey serum and 0.2% Triton-100 for 1 h at room temperature. Then sections were incubated with primary antibodies overnight at 4° C.
To quantify the population of DCX, SOX2, Ki67, NF and NeuN positive cells to total grafted cells (eGFP and Hoechst co-labelled), one brain slice was selected from every 6 serial slices on for stereological counting on Zeiss M1 Microscope with Stereo Investigator software (MBF Bioscience). In brief, immunolabeled slices were scanned on Zeiss M1 Microscope, grafts area was contoured manually, and then corresponding fluorescence labelled cells were unbiasedly counted. Population of cleaved-caspase3 expressing cells to total grafted cells was counted with ImageJ software. Data were replicated 4 to 6 times per group. To quantify the population of Brn2, Ctip2 and Foxp2 expressing cells to total GFP^+ cells on coverslips, all coverslips were scanned and captured by 20× objective with a confocal microscope (Nikon), and then was counted with ImageJ software. Data were replicated three times. All data were expressed as means±SEM.

Assay [2] relates to CCR5, CCL3, CCL4, and CCL5 protein expression. Nature of the assay: Western blotting of CCR5 and CCL3/4/5 in transplanted cortical tissue. In kind it is in vivo, SCID mice. The note with it: day 44 after ischemic lesion / 30 days post-transplantation; normalized to GAPDH. The protocol:
Animals were anaesthetized and perfused with cold PBS at 2, 14 and 44 days after stroke. The injured cortices or grafts (an area with a radius of 1 mm from the epicenter) were dissected manually under a stereomicroscope (Zeiss) and stored at −80° C.
NPCs and neurons were washed using PBS and resuspended in RIPA buffer with protease inhibitor and phosphatase inhibitor. Samples were collected to 1.5 mL tubes on ice for 15 mins. For tissue samples, extracts were sonicated in cold RIPA buffer with protease/phosphatase inhibitors. All samples were quantified using Quick Start™ Bradford Protein Assay (Bio-RAD), and then Laemmli buffer (Bio-RAD) was added to each tube. Samples were heated at 95° C. for 5 mins and stored at −80° C. Total 15 μg of extract was loaded to each well on a 10% Bis-Tris pre-casted gel for electrophoresis.
After running at 120 V for 40 mins, proteins were transferred to PVDF membranes at 400 mA for 30 mins. […] Then membranes were incubated with primary antibodies overnight at 4° C.: anti-CCR5 (1:1000, Abcam, ab110103), anti-CCL3 (1:1000, Abcam, ab259372), anti-CCL4 (1:1000, Abcam, EP521Y), anti-CCL5 (1:1000, Thermo Fisher Scientific, 701030), anti-GAPDH (1:5000, Thermo Fisher Scientific, MA5-15738). The membranes were washed three times by 0.1% TBST and incubated with corresponding secondary antibodies at room temperature for 1 hour. The protein bands were presented by Enhanced Chemiluminescence Substrate (Promega) and visualized in Bio-RAD Chemidoc system. All intensity of bands was analysed by ImageJ software and normalized to corresponding GAPDH bands.

For a further assay, the system named is NPCs. Put plainly: Apoptosis of cultured NPCs (cleaved-caspase3, TUNEL) under CCR5 ligands and CCR5 blockade. In kind it is cell-based, Human. The note with it: for Proportion of cleaved-caspase3+ cells in NPCs: single ligand 300 ng/mL, compared with the control group. The protocol:
Induction of forebrain glutamate NPCs was done using the following procedure. Briefly, H9 hESCs or eGFP H9 hESCs were cultured on 6-well plates with Matrigel/vitronectin coated for one week. ESC colonies were gently blown off by 1 mL pipettes to form cell aggregates at day 0. Cell aggregates were cultured in flasks for 7 days with the neural induction medium (NIM) consisting of DMEM/F12, 1×N2 supplement, 1×NEAA, 2-μM SB431542, and 2-μM DMH-1. Cell aggregates were adhered to 6-well plates in the presence of NIM with 5% FBS for 6 hours, and then fresh NIM was changed. The aggregates were fed with NIM till neural rosette formation at day 16. The rosettes were gently blown off using 1 mL pipettes and suspended in flasks with NIM for 7 days. Then, NIM was changed every four days from day 23. The neural precursor cells (NPCs) were maintained in NIM till transplantation or immunostaining. NPCs were digested into single cells using TrypLE for 3 min at day 49. After one additional day of culture in NIM supplemented with 1×B27 and 100 nM compound E, the NPCs were collected for transplantation in ischemic stroke models. B-27 supplement is a defined yet complex mixture of antioxidant enzymes, proteins, vitamins, and fatty acids that are combined in optimized ratios to support neuronal survival in culture. Compound E is a γ-secretase inhibitor. For immunostaining, NPCs were seeded on glass coverslips and staining was performed after one-week culture.
(§1) To test the effects of CCR5 activation on NPCs and neurons, cells were seeded on Matrigel coated coverslips or 6-well plates and treated with overdose (300 ng/mL) ligands of CCR5. CCL3, CCL4, CCL5 and their combination (CCL3/4/5) were respectively added into NIM every other day. After four-day treatment, NPCs or neurons were collected for staining or immunoblotting.
(§2) 1×10^^5 NPCs were seeded on coverslips in each well of 24-well plate for two days to 50% confluency upon transduction at 37° C. in a humidified 5% C02 incubator. The lentiviral shRNAs (MOIs of 20) were used to infect NPCs overnight at 37° C. The medium containing lentiviral particles was removed from wells and replaced with […] fresh pre-warmed NIM. The infected NPCs were collected for immunostaining or western blotting at 5 days after transduction.
Sections were subsequently washed and incubated with corresponding secondary antibodies for 1 h at room temperature. Immunolabeled sections were mounted by Fluoromount-G with Hoechst. For TUNEL staining, cells on coverslips were fixed in PBS with 4% PFA for 30 mins, and then incubated with Terminal Deoxynucleotidyl Transferase (TdT) Equilibration buffer (Elabscience) at 37° C. for 30 mins. NPCs were incubated in labeling solution (Elabscience) with TdT enzyme at 37° C. for 1 hour.

The target in the next assay is T1, CCR5 (Homo sapiens, UniProt P51681).
T1 construct: endogenous in cells; host or cells: NPCs, immature and mature neurons differentiated from human H9 / eGFP-H9 embryonic stem cells
T1 sequence (P51681 whole entry): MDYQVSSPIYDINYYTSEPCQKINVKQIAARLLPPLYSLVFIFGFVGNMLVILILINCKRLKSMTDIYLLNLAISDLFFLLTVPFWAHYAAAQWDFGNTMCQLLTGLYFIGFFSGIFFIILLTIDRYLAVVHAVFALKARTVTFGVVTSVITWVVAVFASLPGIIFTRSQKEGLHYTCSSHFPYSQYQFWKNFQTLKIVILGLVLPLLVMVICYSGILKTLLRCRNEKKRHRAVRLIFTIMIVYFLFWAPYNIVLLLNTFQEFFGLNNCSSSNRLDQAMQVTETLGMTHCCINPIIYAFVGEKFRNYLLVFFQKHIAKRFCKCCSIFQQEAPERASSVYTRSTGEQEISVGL
Nature of the assay: CCR5 expression on cultured NPCs (immunostaining, Western blotting). The note with it: immunostaining and Western blotting. In kind it is cell-based. The procedure:
as §1, §2
NPCs and neurons were washed using PBS and resuspended in RIPA buffer with protease inhibitor and phosphatase inhibitor. Samples were collected to 1.5 mL tubes on ice for 15 mins. […] All samples were quantified using Quick Start™ Bradford Protein Assay (Bio-RAD), and then Laemmli buffer (Bio-RAD) was added to each tube. […]
After running at 120 V for 40 mins, proteins were transferred to PVDF membranes at 400 mA for 30 mins. […] All intensity of bands was analysed by ImageJ software and normalized to corresponding GAPDH bands.

Assay [3] has as its system neurons in the penumbra area. The note with it: 100 mg/kg, i.p. daily; cited from earlier work.

As to Maraviroc [reference compound], in assay [1], the “Cleaved-caspase3 immunostaining in grafted cells” value was “strong fluorescence”, the “Grafted (GFP+) cells in the stroke cavity” value is reported as “few or no GFP^+ cells”, the “Gross appearance of the cortex” value was “collapsed cortex” and the “Survival of grafted NPCs (overall conclusion)” value is “insufficient to improve the survival of grafted NPCs”. In assay [2], the “CCR5 level in transplanted cortical tissue” value is “did not downregulate” and the “Level of CCL3, 4, 5 in transplanted cortical tissue” value is listed as “did not show obvious difference”. The “TUNEL+ cell population in NPCs under CCR5 blockade” value in the assay with NPCs (apoptosis induced by CCLs) is reported as “reduced the proportion of TUNEL^+ NPCs”. For the same molecule, the “Expression of CCR5 in NPCs under CCR5 blockade” value at CCR5 was “without reducing the expression of CCR5”. The “Survival of neurons in the penumbra after stroke” value in assay [3] was “promoted the survival of those neurons and their synaptic connections”.

Turning to fibrinogen, in assay [1], the “Cleaved-caspase3 immunostaining in grafted cells” value is “strong fluorescence”, the “Grafted (GFP+) cells in the stroke cavity” value is recorded as “observed in the stroke cavity”, the “Gross appearance of the cortex” value is on record as “collapsed cortex” and the “Survival of grafted NPCs (overall conclusion)” value is reported as “insufficient to improve the survival of grafted NPCs”. Besides, the “Fate of grafted cells” value in assay [1] (one month post-transplantation) was “some surviving cells, which did not proliferate and became GFAP positive astrocytes”. In addition, in assay [2], the “CCR5 level in transplanted cortical tissue” value was “did not downregulate” and the “Level of CCL3, 4, 5 in transplanted cortical tissue” value is “did not show obvious difference”.

B1: CCL4: chemokine ligand 4, ligand of CCR5 (protein, UniProt P13236 24-92, looked up)
C-C motif chemokine 4: APMGSDPPTACCFSYTARKLPRNFVVDYYETSSLCSQPAVVFQTKRSKQVCADPSESWVQEYVYDLELN
On to B1, for which, in the assay with NPCs, the “Proportion of cleaved-caspase3+ cells in NPCs” value (“Proportion” below) was “increased”.

B2: CCL3: chemokine ligand 3, ligand of CCR5 (protein, UniProt P10147 24-92, looked up)
C-C motif chemokine 3: SLAADTPTACCFSYTSRQIPQNFIADYFETSSQCSKPGVIFLTKRSRQVCADPSEEWVQKYVSDLELSA
With B2, the “Proportion” value with NPCs is listed as “increased”.

B3: CCL5: chemokine ligand 5, ligand of CCR5 (protein, UniProt P13501 24-91, looked up)
C-C motif chemokine 5: SPYSSDTTPCCFAYIARPLPRAHIKEYFYTSGKCSNPAVVFVTRKNRQVCANPEKKWVREYINSLEMS
In the case of B3, the “Proportion” value in the assay with NPCs is reported as “increased”.
